How the values were obtained:
[1] = target: T1, E. coli DH5α tryptophan synthase (TrpBA) (Escherichia coli, UniProt P0A879); format: biochemical; design: key: +: a clear ninhydrin-positive spot at the Rf of standard tryptophan derivatives after 16-65 h; (+): a weak spot in the product region; −: no product observed; NR: experiment not run; conditions: indole derivative + L-serine + PLP, 37° C., 16-65 h, ninhydrin
T1 construct: made in house; host or cells: E. coli LMG194 (pBAD) or BL-21 (pET)

[2] = target: T2, tryptophanase (TnA) (Escherichia coli, UniProt P0A853); format: biochemical, E. coli; design: key: +: a clear ninhydrin-positive spot at the Rf of standard tryptophan derivatives after 16-65 h; (+): a weak spot in the product region; −: no product observed; NR: experiment not run; conditions: indole derivative + L-serine + PLP, 37° C., 16-65 h, ninhydrin
T2 construct: made in house; host or cells: E. coli LMG194 (pBAD) or BL-21 (pET)
T2 sequence (P0A853 whole entry): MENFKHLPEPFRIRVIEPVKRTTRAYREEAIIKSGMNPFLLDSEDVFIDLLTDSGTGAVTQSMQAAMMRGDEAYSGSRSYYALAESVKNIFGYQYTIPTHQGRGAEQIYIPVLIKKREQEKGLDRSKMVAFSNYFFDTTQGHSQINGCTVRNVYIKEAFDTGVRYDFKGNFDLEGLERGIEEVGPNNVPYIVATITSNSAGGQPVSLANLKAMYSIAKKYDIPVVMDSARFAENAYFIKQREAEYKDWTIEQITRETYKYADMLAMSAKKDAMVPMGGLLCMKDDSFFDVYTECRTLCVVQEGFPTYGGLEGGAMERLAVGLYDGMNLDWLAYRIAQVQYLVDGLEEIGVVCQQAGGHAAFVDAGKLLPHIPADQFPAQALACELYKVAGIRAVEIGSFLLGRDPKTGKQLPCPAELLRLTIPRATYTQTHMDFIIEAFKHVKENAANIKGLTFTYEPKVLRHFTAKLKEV

[3] = target: T3, TrpBA (Escherichia coli, UniProt P0A879); experiment: Relative rates of tryptophan derivative synthesis by HPLC, TrpBA; format: biochemical, E. coli; conditions: initial rate estimated by HPLC, indole = 100%, L-serine
T3 construct: made in house; host or cells: E. coli LMG194 (pBAD) or BL-21 (pET)
T3 sequence (P0A879 whole entry): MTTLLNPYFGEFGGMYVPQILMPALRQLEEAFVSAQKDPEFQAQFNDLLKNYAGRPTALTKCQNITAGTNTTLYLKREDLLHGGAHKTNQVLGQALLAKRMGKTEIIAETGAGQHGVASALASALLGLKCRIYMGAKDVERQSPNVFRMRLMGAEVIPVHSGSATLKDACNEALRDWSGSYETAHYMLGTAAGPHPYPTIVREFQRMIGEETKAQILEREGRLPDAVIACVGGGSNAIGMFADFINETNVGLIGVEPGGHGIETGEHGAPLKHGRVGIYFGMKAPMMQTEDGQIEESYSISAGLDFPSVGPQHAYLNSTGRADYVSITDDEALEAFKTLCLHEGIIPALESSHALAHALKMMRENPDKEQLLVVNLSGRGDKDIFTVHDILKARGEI
T3 sequence (P0A877 whole entry, further chain): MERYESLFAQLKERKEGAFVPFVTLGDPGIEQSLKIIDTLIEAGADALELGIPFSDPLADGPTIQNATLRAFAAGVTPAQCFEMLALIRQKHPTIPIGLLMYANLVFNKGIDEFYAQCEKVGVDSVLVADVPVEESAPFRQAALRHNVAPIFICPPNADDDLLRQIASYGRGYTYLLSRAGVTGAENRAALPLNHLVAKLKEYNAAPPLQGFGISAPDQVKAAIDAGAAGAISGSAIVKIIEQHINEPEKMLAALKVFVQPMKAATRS
Description: (§1) Reaction mixtures were prepared as in Example 6 and were incubated at 37° C. Aliquots (100 μL) were removed and quenched by addition of to 300 μL of 0.5 M sodium citrate, pH 3.0 in 10% v/v acetonitrile/water in 2 ml microcentrifuge tubes. Following centrifugation for 10 min at 13,000×g, the supernatants were passed through 0.45μ membrane filters prior to HPLC analysis of 20 μL of filtrate.
(§2) TnA reactions were run with L-serine as the 3-carbon substrate.

[4] = target: T4, TnA (Escherichia coli, UniProt P0A853); experiment: Relative rates of tryptophan derivative synthesis by HPLC, TnA; format: biochemical, E. coli; conditions: initial rate estimated by HPLC, indole = 100%, L-serine as the 3-carbon substrate
T4 construct: made in house; host or cells: E. coli LMG194 (pBAD) or BL-21 (pET)
T4 sequence (P0A853 whole entry): as the sequence (P0A853 whole entry) above
Description: as §1, with “Aliquots” for “Reaction mixtures were prepared as in Example 6 and were incubated at 37° C. Aliquots”
as §2

[5] = test system: TrpBA and TDC1; experiment: Coupled enzyme synthesis monitored by HPLC; format: biochemical; conditions: L-serine, PLP, pH 8.5 phosphate buffer, 37° C.
Description: To a solution containing L-serine (25 μmol), pyridoxal phosphate (0.05 μmol) and TrpBA (0.02 to 1.5 units, depending on the substrate), TDC1 (0.2 mL 0.6 units) and KPi buffer (0.05 mmol, pH 7.5) in a volume of 0.8 mL were added […] of 5 mM indole derivative in 20% v/v ethanol/water. The mixture was incubated at 37° C. and aliquots were quenched and analyzed as described for Example 8. In cases where tryptamine and/or tryptophan standards were not available, peaks were collected for mass spectral analysis. Electrospray mass spectral analyses were performed.
Mixtures containing indole, L-serine, PLP and TDC1 were incubated in pH 8.5 phosphate buffer, analyzing aliquots by HPLC, as described in Example 12.
The procedure used in Example 24 was carried out by substituting indole with 2-methylindole, 4-hydroxymethylindole, 5-methoxy-, 5-hydroxymethyl-, 5-methoxycarbonyl, and 5,6-dimethoxyindole.

[6] = target: T5, pkAAAD (Sus scrofa, UniProt P80041); experiment: pkAAAD-catalyzed decarboxylation rate ratio by HPLC; format: biochemical, pig; conditions: HPLC of acid-quenched aliquots, ratio to 1
T5 construct: Frozen tissue was partially thawed in lysis buffer, then it was extracted and partially purified; from tissue; host or cells: pig kidney
T5 sequence (P80041 1-486): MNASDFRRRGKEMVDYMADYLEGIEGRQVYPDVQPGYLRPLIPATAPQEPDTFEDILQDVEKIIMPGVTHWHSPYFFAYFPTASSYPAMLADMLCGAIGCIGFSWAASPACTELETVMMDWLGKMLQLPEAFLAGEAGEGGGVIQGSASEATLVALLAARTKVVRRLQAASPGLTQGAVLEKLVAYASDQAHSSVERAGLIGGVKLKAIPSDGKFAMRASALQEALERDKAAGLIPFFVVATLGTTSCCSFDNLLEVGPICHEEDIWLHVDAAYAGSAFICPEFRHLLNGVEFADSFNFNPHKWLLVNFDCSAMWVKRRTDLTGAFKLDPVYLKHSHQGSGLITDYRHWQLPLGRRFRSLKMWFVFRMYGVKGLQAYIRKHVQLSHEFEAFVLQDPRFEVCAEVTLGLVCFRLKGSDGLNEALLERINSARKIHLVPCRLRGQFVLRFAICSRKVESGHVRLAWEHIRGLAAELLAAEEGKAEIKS
Description: Tryptophan synthase activity was assayed by monitoring the increase in absorbance at 290 nm of a mixture containing serine, indole and PLP (Higgins, W., et al., Biochemistry, 1979, 18, 4827). TnA-catalyzed tryptophan synthesis was also measured by the 290 nm assay, while the tryptophan lyase reaction rate was measured by monitoring the reduction in NADH in reaction mixtures containing L-tryptophan and lactate dehydrogenase, indicating the amount of pyruvate released. Tryptophan decarboxylase was assayed colorimetrically by monitoring the sabsorbance at 580 nm produced by serotonin (AAADs) or tryptamine (TDCs) following treatment of reaction aliquots with Ehrlich's reagent (4-N,N-(dimethyl)aminobenzaldehyde in ethanolic HCl; Nakazawa, H.; Kumagi, H.; Yamada, H. Biochem Biophys. Res. Commun., 1974, 61, 75-82). Serotonin could be detected with approximately 5-fold higher sensitivity by this method as compared with tryptamine. The Ehrlich reagent assay using a microtiter plate format for simultaneous analysis of multiple enzyme samples may also be used. HPLC analysis was performed on acid-quenched reaction aliquots by using a base-deactivated C8 reversed-phase support (Shandon Hypersil BD8). […]

[7] = target: T5, pkAAAD; conditions: literature (Sourkes 1987), ratio :1; cited from earlier work

T1 sequence (P0A879 whole entry): as the sequence (P0A879 whole entry) above
T1 sequence (P0A877 whole entry, further chain): as the sequence (P0A877 whole entry, further chain) above

SMILES | TrpBA (tryptophan product spot, TLC analysis) [1] | TnA (tryptophan product spot, TLC analysis) [2] | Relative rate (TrpBA) [3] | Relative Rate (TnA) [4] | formation of tryptophan derivative and tryptamine (HPLC peaks) [5] | rate ratio of DOPA decarboxylation relative to that of L-5-hydroxytryptophan [6] | accepted ratio of DOPA to L-5-hydroxytryptophan decarboxylation [7]
OCc1ccc2[nH]ccc2c1 [5-hydroxymethyl-, indole-5-methanol] | + | + | 0.03% | 1.2% | a second peak representing formation of tryptamine |  | 
N[C@@H](Cc1ccc(O)c(O)c1)C(=O)O [DOPA] |  |  |  |  |  | 4.5 | approximately 5

Reference: US20030096379A1, “Method for producing tryptamine derivatives” (priority 2001, published 2003)
